Assay results reported in BindingDB's records for doi:10.1021/jm00160a056 (1986).

Target: Trifunctional purine biosynthetic protein adenosine-3 (Mus musculus) (UniProt Q64737)
Assay: Compound was evaluated for the inhibition of GAR transformylase isolated from murine lymphoma cell line L5178Y

Chain of Trifunctional purine biosynthetic protein adenosine-3 (Mus musculus) (Q64737 whole entry, looked up): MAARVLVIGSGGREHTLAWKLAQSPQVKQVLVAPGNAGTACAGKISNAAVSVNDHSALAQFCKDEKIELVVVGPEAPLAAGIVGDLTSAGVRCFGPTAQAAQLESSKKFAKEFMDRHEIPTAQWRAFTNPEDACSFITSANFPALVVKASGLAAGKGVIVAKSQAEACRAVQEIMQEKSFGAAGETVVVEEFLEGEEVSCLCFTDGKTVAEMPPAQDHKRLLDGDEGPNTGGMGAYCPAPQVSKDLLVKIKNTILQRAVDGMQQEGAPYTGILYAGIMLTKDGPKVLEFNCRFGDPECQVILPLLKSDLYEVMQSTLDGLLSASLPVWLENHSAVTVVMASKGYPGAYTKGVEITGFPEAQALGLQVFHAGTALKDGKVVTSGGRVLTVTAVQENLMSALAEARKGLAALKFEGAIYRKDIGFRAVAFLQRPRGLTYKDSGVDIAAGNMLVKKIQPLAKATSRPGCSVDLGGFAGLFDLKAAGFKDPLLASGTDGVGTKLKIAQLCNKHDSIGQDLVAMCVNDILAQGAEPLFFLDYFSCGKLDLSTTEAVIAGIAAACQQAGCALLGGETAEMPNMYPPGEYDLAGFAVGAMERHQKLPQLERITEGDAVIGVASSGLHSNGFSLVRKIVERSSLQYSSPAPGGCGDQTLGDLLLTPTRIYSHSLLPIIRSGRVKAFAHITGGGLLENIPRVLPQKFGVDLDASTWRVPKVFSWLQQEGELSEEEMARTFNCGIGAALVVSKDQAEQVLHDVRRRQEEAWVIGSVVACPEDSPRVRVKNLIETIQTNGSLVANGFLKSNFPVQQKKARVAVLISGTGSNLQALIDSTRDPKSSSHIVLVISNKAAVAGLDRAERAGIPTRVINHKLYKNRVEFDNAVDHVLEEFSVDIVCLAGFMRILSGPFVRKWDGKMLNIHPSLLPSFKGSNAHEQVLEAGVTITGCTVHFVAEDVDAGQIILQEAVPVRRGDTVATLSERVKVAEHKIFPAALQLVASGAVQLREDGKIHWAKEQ

| SMILES | Ki |
| --- | --- |
| Nc1nc2ccc(CNc3ccc(C(=O)NC(CCC(=O)O)C(=O)O)cc3)cc2c(=O)[nH]1 (configuration not stated) | 2000 nM |
| CC(=O)N(Cc1ccc2nc(N)[nH]c(=O)c2c1)c1ccc(C(=O)NC(CCC(=O)O)C(=O)O)cc1 (configuration not stated) [2-{4-[Acetyl-(2-amino-4-oxo-3,4-dihydro-quinazolin-6-ylmethyl)-amino]-benzoylamino}-pentanedioic acid] | 1300 nM |
